Test results taken from patent US20070021509A1, “Phosphate transport inhibitors” (priority 2001, published 2007).

What was measured:
[1] = system: phosphate uptake by rabbit intestinal Brush Border Membrane Vesicles (BBMV); experiment: 33PO4 uptake in rabbit intestinal BBMV (HTS), phosphate transporter inhibition in vitro; type: biochemical; conditions: Table 14, in vitro, read-out: Phosphate Transport IC50
Method in brief: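 BBMV from duodenal mucosa of male New Zealand White rabbits, diluted to about 0.5-2.0 mg/mL protein. Uptake buffers carried 33PO4 at 200,000 CPM/19 μL. Controls: Na uptake buffer (max), plus 100 μM KH2PO4 pH 7.4 (mid), K uptake buffer (min).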

[2] = system: glucose uptake into isolated rabbit intestinal rings; experiment: Ex vivo glucose uptake into isolated rabbit intestinal rings; type: cell-based; parameters: concentration or dose not given beside the values; conditions: Table 14
Procedure: For the ex vivo assay, ^33P uptake into isolated rabbit intestinal rings was measured using a modification of the method described by Crane and Mandelstam [Robert K. Crane and Paul Mandelstam “The active transport of sugars by various preparations of hamster intestine” Biochim. Biophys. Acta 45: 460-476, 1960; the contents of which are incorporated herein by reference]. Male New Zealand rabbits 2-3 kg in weight were aeuthinized by an i.v. injection of Fatal Pluse®. A midline laparotomy was performed and the duodenum from the pyloric junction to the ligament of Trietz isolated and excised. Segments of bowel were everted, cut into 2-4 mm ring-like pieces and placed into a modified Hepes-Buffered Ringer's solution in which Na^+ had been iso-osmotically replaced with N-methyl-D-glucamine. […] […] Tissues were then solublized by digesting them in a 5 ml volume of Solvable® tissue solubilizer overnight at 50° C. and ^33P levels determined by scintillation counting. Sodium-dependent uptake of ^33P was calculated by determining the difference in uptake between rings incubated in the presence and absence of Na^+ in the Hepes-Buffered Ringer's solution. Results are reported as the percentage inhibition of phosphate and glucose uptake, respectively.

Question: `COc1ccccc1CNC(=O)c1cc(Br)ccc1NS(=O)(=O)c1ccc(OC(F)(F)F)cc1` [Example 70, 5-Bromo-N-(2-methoxy-benzyl)-2-(4-trifluoromethoxy-benzenesulfonylamino)-benzamide] was tested. Which IC50 [1] did it give?
Answer: 6.3 µM

Question: What about the “% Glucose Transport Inhibition” value [2] of the same compound?
Answer: 8%

Question: For `O=C(NCc1ccc(F)cc1)c1cc(Br)ccc1NS(=O)(=O)c1ccc(OC(F)(F)F)cc1` [Example 71, 5-Bromo-N-(4-fluoro-benzyl)-2-(4-trifluoromethoxy-benzenesulfonylamino)-benzamide], which IC50 [1] is on record?
Answer: 13 µM

Question: And the “% Glucose Transport Inhibition” value [2]?
Answer: 26%

Question: `O=C(NCc1ccc(OC(F)(F)F)cc1O)c1cc(Br)ccc1NS(=O)(=O)c1ccc(OC(F)(F)F)cc1` [Example 75, 5-Bromo-N-(2-hydroxy-4-trifluoromethoxy-benzyl)-2-(4-trifluoromethoxy-benzenesulfonylamino)-benzamide] was tested. Which IC50 [1] did it give?
Answer: 5.2 µM

Question: What about the “% Glucose Transport Inhibition” value [2] of the same compound?
Answer: 0%

Question: What does the source list for `COc1ccc(F)cc1CNC(=O)c1cc(Br)ccc1NS(=O)(=O)c1ccc(OC(F)(F)F)cc1` [Example 78, 5-Bromo-N-(5-fluoro-2-methoxy-benzyl)-2-(4-trifluoromethoxy-benzenesulfonylamino)-benzamide]?
Answer: IC50 [1]: 7.8 µM; % Glucose Transport Inhibition [2]: 4%

Question: What does the source list for `O=C(Nc1cccc(C(F)(F)F)c1)Nc1cccc(C(F)(F)F)c1` [Example 82, 1,3Bis(3-Trifluoromethylphenyl)urea]?
Answer: IC50 [1]: 11 µM; % Glucose Transport Inhibition [2]: 26%

Question: How did the IC50 [1] turn out when `O=C(Nc1cc(C(F)(F)F)cc(C(F)(F)F)c1)NC1CCCCC1` [Example 83, 1-Cyclohexyl-3-(3,5-Bistrifluoromethyl-phenyl)-urea] was run?
Answer: 7.7 µM

Question: What about the “% Glucose Transport Inhibition” value [2] of the same compound?
Answer: 0%

Question: Which results are given for `Cn1nc(C(C)(C)C)cc1C(=O)Nc1ccc(C(F)(F)F)cc1` [Example 84, 5-tert-Butyl-2-methyl-2H-pyrazole-3-carboxylic acid (4-trifluoromethyl-phenyl)-amide]?
Answer: IC50 [1]: 11 µM; % Glucose Transport Inhibition [2]: 21%

Question: What does the source list for `O=C(Nc1cccc(C(F)(F)F)c1)Nc1cc(Cl)ccc1Cl` [Example 85, 1-(2,5-Dichloro-phenyl)-3-(3-trifluoromethyl-phenyl)-urea]?
Answer: IC50 [1]: 10 µM; % Glucose Transport Inhibition [2]: 0%

Question: Which results are given for `O=C(Nc1cccc(C(F)(F)F)c1)Nc1ccc(F)c([N+](=O)[O-])c1` [Example 86, 1-(4-Fluoro-3-nitro-phenyl)-3-(3-trifluoromethyl-phenyl)-urea]?
Answer: IC50 [1]: 2.8 µM; % Glucose Transport Inhibition [2]: 4%

Question: Which IC50 [1] does the source give for `Cl.N=C(Nc1ccc(Br)c(C(F)(F)F)c1)Nc1ccc(Br)c(C(F)(F)F)c1` [Example 87, N,N′-Bis-(4-bromo-3-trifluoromethyl-phenyl)-guanidine Hydrochloride] here?
Answer: 35 µM

Question: And the “% Glucose Transport Inhibition” value [2]?
Answer: 3%

Question: Which results are given for `Cl.N=C(Nc1cc(C(F)(F)F)cc(C(F)(F)F)c1)Nc1cc(C(F)(F)F)cc(C(F)(F)F)c1` [Example 88, N,N′-Bis-(3,5-bis-trifluoromethyl-phenyl)-guanidine Hydrochloride]?
Answer: IC50 [1]: 26 µM; % Glucose Transport Inhibition [2]: 0%

Question: Which results are given for `Cl.N=C(Nc1ccc(Cl)c(C(F)(F)F)c1)Nc1ccc(Cl)c(C(F)(F)F)c1` [Example 89, N,N′-Bis-(4-chloro-3-trifluoromethyl-phenyl)-guanidine Hydrochloride]?
Answer: IC50 [1]: 16 µM; % Glucose Transport Inhibition [2]: 0%

Question: What does the source list for `Cl.N=C(Nc1ccc(C(F)(F)F)c(C(F)(F)F)c1)Nc1ccc(C(F)(F)F)c(C(F)(F)F)c1` [Example 90, N,N′-Bis-(3,4-bis-trifluoromethyl-phenyl)-guanidine Hydrochloride]?
Answer: IC50 [1]: 17 µM; % Glucose Transport Inhibition [2]: 0%
